# Reference: US20140161786A1, “Therapeutic compositions and related methods” (priority 2012, published 2014)
# Where a SMILES comes first, the peptide text is derived from it.
# Legend:
# [1] = target: T1, beta chain of insulin (Homo sapiens, UniProt P01308); experiment: Inhibition of DTT induced aggregation of the beta chain of insulin (molecular chaperone function); format: biochemical; conditions: for inhibition of insulin aggregation, L- versus D-amino acids: FIG. 6b/6c; for molecular chaperone function (inhibition of insulin aggregation): pH 4 and pH 7.4; for inhibition of insulin aggregation: pH 7.4 and pH 5
# T1 construct: DTT induced aggregation of the beta chain of insulin
# T1 sequence (P01308 25-54 limits assumed): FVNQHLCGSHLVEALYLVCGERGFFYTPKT
# Procedure: The capacity of the proteins and peptides to inhibit DTT induced aggregation of the beta chain of insulin was assayed using procedures described previously by several authors. See, for example, Hong, D. P. & Fink, A. L. Independent heterologous fibrillation of insulin and its B-chain peptide. Biochemistry 44, 16701-16709, doi:10.1021/bi051658y (2005). Also see, Hong, D. P., Ahmad, A. & Fink, A. L. Fibrillation of human insulin A and B chains. Biochemistry 45, 9342-9353, doi:10.1021/bi0604936 (2006). The aggregation was measured by the increase in absorption at 360 nm as a function of time over twenty minutes.
# To determine whether the ThT staining observed in Experiment 4 (above) correlated with molecular chaperone function, each of the peptides was assayed for its ability to inhibit insulin aggregation. The effect of ThT on insulin aggregation was measured as a control. […] […] See, Nielsen, L. et al. Effect of environmental factors on the kinetics of insulin fibril formation: elucidation of the molecular mechanism. Biochemistry 40, 6036-6046, doi:bi002555c [pii] (2001).
# [2] = test system: EAE mice; experiment: EAE mouse model, reduction of paralytic symptoms; format: in vivo
# [3] = Amyloid fibril formation by thioflavin T (ThT) fluorescence; format: physicochemical; conditions: for amyloid fibril formation (ThT staining), L- versus D-amino acids: 100 mM MES pH 7.4, 37° C.; for pH dependent amyloid fibril formation (ThT staining): buffers pH 3 to pH 10, 37° C., fluorescence at 485 nm
# Procedure: The relative amount of amyloid present in each solution was measured by combining solutions of the hexamers (200 mg 50 ml) dissolved in 100 mM MES pH 7.4 and 50 ml of a 1M buffer solution at the appropriate pH (glycine, pH 3; acetate, pH 4; citrate, pH 5; MES, pH 6; Tris, pH 7; Tris, pH 8; glycine, pH 9; bicarbonate, pH 10) and incubated at 37° C. ThT (10 ml of 10 mM solution) was added and the resultant emission fluorescence at 485 nm for each sample after excitation at 440 nm was measured using a SpectraMax 190 fluorescent microtiter plate reader.
# The ability of each hexamer listed in Table 1 to form amyloid fibrils in aqueous buffers was examined. Each of the hexamers (200 mg 50 ml) was added to 100 ml of 100 mM MES pH 7.4 and combined with 50 ml of a 1M buffer solution at the appropriate pH (glycine, pH 3; acetate, pH 4; citrate, pH 5; MES, pH 6; Tris, pH 7; Tris, pH 8; glycine, pH 9; bicarbonate, pH 10) and incubated at 37° C. ThT (10 ml of 10 mM solution) was added and the resultant fluorescence at 485 nm from excitation at 440 nm was measured using a fluorescent plate reader. The peptides can be segregated into sets A-E: an anionic set forming fibrils at pH 3, pH 4, and pH 5 (A), a cationic group forming fibrils only at pH 10 (B), three cationic sequences that form amyloid fibrils at all pHs measured (C), a nonionizable set of sequences weakly binding ThT at all pHs (D), and a hydrophobic set of sequences that bind ThT at all pHs tested (E). Only a fraction of the peptides formed amyloid fibrils when dissolved in PBS pH 7.4, as measured by staining with thioflavin T (ThT). Their differential propensity to form amyloid fibrils was used to help segregate them into functional sets (Table 1).
# With respect the experimental results depicted in FIG. 6: A) L- and D-tau 623-628 and L- and D-Aβ 37-42 (200 μg/50 μl) were each added to 100 μl of 100 mM MES pH 7.4 and incubated at 37° C. ThT (10 μl of 10 μM solution) was added and the resultant fluorescence at 485 nm from excitation at 440 nm was measured using a fluorescent plate reader. The levels of ThT were similar in both sets of hexapeptides. […] D) Groups of ten mice were injected daily intraperitoneally for 10 days with 1 μg of L-tau or D-tau hexapeptides beginning at onset of hindlimb weakness. PBS was injected in littermates as control. Bar represents the duration of the treatment. Values in graph represent mean+/−S.E.M. *p<0.05 for L-tau and ̂p<0.05 for D-tau by Mann-Whitney U test.
# [4] = test system: plasma cytokine levels (IL-6, IL-2, TGF-β, IL-17); experiment: Plasma cytokine levels in EAE mice (multiplex-bead-analysis of 26 cytokines); format: in vivo; conditions: 1 μg of Tau 623-628 or 10 μg of HspB1 daily for two days, bled 12 hours later
# Procedure: EAE was induced by procedures previously described. See, Steinman, L. & Zamvil, S. S. How to successfully apply animal studies in experimental allergic encephalomyelitis to research on multiple sclerosis. Ann Neurol 60, 12-21, doi:10.1002/ana.20913 (2006). […] Sera from EAE mice were collected following two days of treatment with 10 μg HspB1 protein, 1 μg tau 623-628 (VQIVYK)(SEQ ID NO: 123), or PBS. Twenty-six cytokines were analyzed by multiplex-bead-analysis.
# To determine whether a hexamer modulated the plasma cytokine levels equivalent to an intact small heat shock protein, groups of five mice were treated after the onset of hindlimb weakness with daily injections of either 1 μg of Tau 623-628 or 10 μg of HspB1 for two days and bled 12 hours later.
# [5] = mice, 1 μg peptide injected daily from onset of hindlimb weakness, PBS control
compound,measurement,setting,value
"Cc1ccc2c(c1)sc(-c1ccc(N(C)C)cc1)[n+]2C.[Cl-] [ThT, thioflavin T, reference compound]",effect on the rate of insulin aggregation (control),[1]; 10 mM ThT,Neither the addition of 10 mM ThT nor ThT bound to Tau 623-628 affected the rate of insulin aggregation
"CC(=O)N[C@@H](CO)C(=O)N[C@@H](CC(N)=O)C(=O)N[C@@H](CCC(N)=O)C(=O)N[C@@H](CC(N)=O)C(=O)N[C@@H](CC(N)=O)C(=O)N[C@@H](Cc1ccccc1)C(N)=O [prion 148-153, SNQNNF] (Ac-SNQNNF-NH2)",reduction of the paralytic symptoms of EAE,"[2]; mouse, in vivo",therapeutic
Ac VQIVYK CONH2 [D-tau 623-628],"amyloid fibril formation (ThT staining), L- versus D-amino acids",[3],similar
same,"inhibition of insulin aggregation, L- versus D-amino acids",[1],inhibit insulin aggregation in a dose dependent manner with similar IC50 concentrations
GYVIIK [serum amyloid P 213-218],reduction of the paralytic symptoms of EAE,[2]; [5],therapeutic
same,pH dependent amyloid fibril formation (ThT staining),[3],formed amyloid fibrils in buffers from pH 3-10
HspB1: intact small heat shock protein,IL-2 level in serum,[4],smaller reductions
same,IL-6 level in serum,[4],dramatic reduction
same,IL-17 level in serum,[4],smaller reductions
same,TGF-β level in serum,[4],smaller reductions
"L-Aβ 37-42: L-amino acid hexapeptide of FIG. 6A; b76 calls it A beta 35-40 (Ac MVGGVV CONH2) (Ac-MVGGVV-NH2; UniProt P05067 706-711, looked up, fragment)","amyloid fibril formation (ThT staining), L- versus D-amino acids",[3],similar
"LKVKVL [HspB5 89-94, hexamer of HspB5 residues 89-94]",reduction of the paralytic symptoms of EAE,[2]; [5],effectively reduced the paralytic symptoms of EAE
same,pH dependent amyloid fibril formation (ThT staining),[3],bound ThT only at pH 10
"MVGGVV (Ac-MVGGVV-NH2) [A beta A4 35-40, Ac MVGGVV CONH2 in b76]",reduction of the paralytic symptoms of EAE,"[2]; mice, 1 μg peptide daily, administered in 50% DMSO",therapeutic
same,"amyloid fibril formation (ThT staining), L- versus D-amino acids",[3],"equivalent, within error"
NKGAII [A beta A4 27-32],reduction of the paralytic symptoms of EAE,[2]; [5],therapeutic
same,pH dependent amyloid fibril formation (ThT staining),[3],bound ThT only at pH 10
SSTNVG [amylin 28-33],reduction of the paralytic symptoms of EAE,[2]; [5],therapeutic
"SVNDLV [HspB5 76-81, hexamer of HspB5 residues 76-81]",reduction of the paralytic symptoms of EAE,[2]; [5],effectively reduced the paralytic symptoms of EAE
same,pH dependent amyloid fibril formation (ThT staining),[3],effectively formed amyloid fibrils only in a range of pH 3 to pH 5
same,molecular chaperone function (inhibition of insulin aggregation),[1],molecular chaperone only at pH4 and not in more basic solutions
same,inhibition of insulin aggregation,[1],only effective at pH 5
VQIVYK [Tau 623-628],reduction of the paralytic symptoms of EAE,[2]; [5],effectively reduced the paralytic symptoms of EAE
same,IL-2 level in serum,[4],smaller reductions
same,IL-6 level in serum,[4],dramatic reduction
same,IL-17 level in serum,[4],smaller reductions
same,TGF-β level in serum,[4],smaller reductions
same,"amyloid fibril formation (ThT staining), L- versus D-amino acids",[3],"equivalent, within error"
same,"amyloid fibril formation (ThT staining), L- versus D-amino acids",[3]; listed as L-tau 623-628,similar
same,pH dependent amyloid fibril formation (ThT staining),[3],formed amyloid fibrils in buffers from pH 3-10
same,"inhibition of insulin aggregation, L- versus D-amino acids",[1],inhibited insulin aggregation with very similar IC50 values
same,"inhibition of insulin aggregation, L- versus D-amino acids",[1]; listed as L-tau,inhibit insulin aggregation in a dose dependent manner with similar IC50 concentrations
same,molecular chaperone function (inhibition of insulin aggregation),[1],inhibited insulin aggregation at pH 4 and pH 7.4
same,inhibition of insulin aggregation,[1],potent inhibitor at both pH 7.4 and pH 5
same,"IC50, inhibition of insulin aggregation","[1]; titration, Panel C of FIG. 4",approximately 20 mg
"amyloid beta A4 16-21: lysine-containing hexamer of amyloid beta A4 residues 16-21 (KLVFFA; Amyloid-beta protein 42; UniProt P05067 687-692, looked up, fragment)",pH dependent amyloid fibril formation (ThT staining),[3],formed amyloid fibrils in buffers from pH 3-10
"insulin A chain 12-17: hexamer of insulin A chain residues 12-17, acidic residue, sequence only in Table 1 image",pH dependent amyloid fibril formation (ThT staining),[3],effectively formed amyloid fibrils only in a range of pH 3 to pH 5
same,molecular chaperone function (inhibition of insulin aggregation),[1],"molecular chaperones at pH 4, but not at pH 7.4"
"insulin B chain 11-16: hexamer of insulin B chain residues 11-16, acidic residue, sequence only in Table 1 image",reduction of the paralytic symptoms of EAE,[2]; [5],did not statistically significantly reduce the symptoms of EAE
same,pH dependent amyloid fibril formation (ThT staining),[3],effectively formed amyloid fibrils only in a range of pH 3 to pH 5
same,molecular chaperone function (inhibition of insulin aggregation),[1],"molecular chaperones at pH 4, but not at pH 7.4"
